The NIST ThermoML archive (doi:10.1021/je900643r)

What was measured:
[1] = 298.15 K; for surface tension liquid-gas: Drop volume; for mass density: 101.33 kPa, Liquid
[2] = xn = mol fraction of the nth substance listed; conditions: 298.15 K; for surface tension liquid-gas: Drop volume; for mass density: 101 kPa, Liquid

CCCOC(=O)CC [propyl propanoate]
[1]
Conditions	mass density [kg/m3]	surface tension liquid-gas [mN/m]
–	875.53	24.1

CCCCCC [hexane]
[1]
Conditions	mass density [kg/m3]	surface tension liquid-gas [mN/m]
–	654.7	17.91

Cc1ccc(C)cc1 [1,4-dimethylbenzene]
[1]
Conditions	mass density [kg/m3]	surface tension liquid-gas [mN/m]
–	856.51	27.7

Cc1ccc(C)cc1 [1,4-dimethylbenzene] + CCCCCC
[2]
Conditions	mass density [kg/m3]	surface tension liquid-gas [mN/m]
x2 = 0.0393	848.42	–
x2 = 0.0535	–	26.84
x2 = 0.0718	–	26.58
x2 = 0.0869	838.63	–
x2 = 0.1265	–	25.76
x2 = 0.1341	–	25.66
x2 = 0.1535	824.96	–
x2 = 0.208	813.78	–
x2 = 0.3063	793.59	–
x2 = 0.3083	–	23.45
x2 = 0.3397	–	23.1
x2 = 0.3524	784.21	–
x2 = 0.399	–	22.47
x2 = 0.4333	767.75	–
x2 = 0.467	–	21.81
x2 = 0.4867	756.93	–
x2 = 0.492	–	21.59
x2 = 0.5267	–	21.29
x2 = 0.5404	746.02	–
x2 = 0.5836	737.32	–
x2 = 0.6034	–	20.67
x2 = 0.638	726.41	–
x2 = 0.6394	–	20.39
x2 = 0.6877	–	20.07
x2 = 0.6903	715.94	–
x2 = 0.7826	–	19.41
x2 = 0.7872	696.69	–
x2 = 0.8126	–	19.22
x2 = 0.8297	688.25	–
x2 = 0.8798	–	18.79
x2 = 0.8952	675.28	–
x2 = 0.9417	666.19	–
